{"source": "patent US20160153998A1", "about": "“BIOMARKERS FOR PREDICTING THE SENSITIVITY OF CELLS TO IMMUNOMODULATORY COMPOUNDS DURING TREATMENT OF NON-HODGKIN'S LYMPHOMA” (Celgene Corporation, priority 2007, published 2016)", "format_in_all_cases": "cell-based", "key": {"[1]": {"test_system": "Rec-1 cells", "assay": "Real-time PCR gene expression in Rec-1 cells", "details": "1, 10 or 100 μM, 24 or 48 hours, alone or with dexamethasone 10 nM", "experimental": "(§1) After the cell treatment, total RNA was purified. Real-time PCR was performed with 100 ng of total RNA, using an Applied Biosystems 7500 instrument (Applied Biosystems, Foster City, Calif.) using TaqMan Sequence Detection chemistry which uses a fluorogenic probe (FAM) to enable the detection of a specific PCR product as it accumulates during PCR. Samples were prepared in triplicate in 50 μl reaction volumes. The 50 μl reactions consisted of 25 μl 2× TaqMan PCR master mix, 2.5 μl of 20× gene expression assay, 10 μl of RNA ([…]) and 12.5 μl water. Glyceraldehyde-3-phosphate dehydrogenase (GAPDH) was used as the endogenous control to ensure equal RNA amounts in each sample.\n(§2) TaqMan® Gene Expression Assays were pre-formulated gene expression assays for rapid, reliable detection and quantification of human, mouse and rat mRNA transcripts. The PCR program used was: 50° C. for 2 minutes, 95° C. for 10 minutes, 40 cycles of 95° C. for 15 seconds, 60° C. for 1 minute. Data was analyzed using 7500 Real-Time PCR System Sequence Detection software v1.3 using the comparative CT relative quantification calculation method. The output was expressed as a fold-change of expression levels. The threshold level was selected to be automatically determined by the software and was set to be above the baseline but sufficiently low to be within the exponential growth region of an amplification curve. The cycle number at which the fluorescence signal associated with a particular amplicon accumulation crosses the threshold is referred to as the CT.\nThe effect of 1,3-dioxo-2-(2,6-dioxopiperidin-3-yl)-4-aminoisoindoline or 1-oxo-2-(2,6-dioxopiperidin-3-yl)-4-aminoisoindoline, either alone or in combination with Dexamethasone (10 nM) on the expression of several important genes involved in the regulation of NHL cell proliferation and survival was determined using Rec-1 cells (FIG. 1). The immunomodulatory compounds 1,3-dioxo-2-(2,6-dioxopiperidin-3-yl)-4-aminoisoindoline or 1-oxo-2-(2,6-dioxopiperidin-3-yl)-4-aminoisoindoline were added to the Rec-1 cells at a final concentration of 1, 10, or 100 μM. After 24 or 48 hours of incubation with 1,3-dioxo-2-(2,6-dioxopiperidin-3-yl)-4-aminoisoindoline or 1-oxo-2-(2,6-dioxopiperidin-3-yl)-4-aminoisoindoline, gene expression of VEGF, p21, p53, and cyclin D1 was measured using real-time PCR."}, "[2]": {"test_system": "Jeko-1 cells", "assay": "Real-time RT-PCR mRNA levels in Jeko-1 cells", "details": "24 hours", "experimental": "as §1, §2\nJeko-1 cells were treated with immunomodulatory compounds, with or without dexamethasone (10 nM) for 24 hours. Total RNA was then isolated from the treated cells, and the samples were subjected to real-time RT-PCR analysis to determine gene transcription at the mRNA level. […] 1,3-dioxo-2-(2,6-dioxopiperidin-3-yl)-4-aminoisoindoline (at 10 μM) enhanced mRNA levels of these genes up to about 3-fold. 1-oxo-2-(2,6-dioxopiperidin-3-yl)-4-aminoisoindoline (1 μM) enhanced activin A mRNA level up to 2.6-fold, and SPARC was enhanced at 10 μM."}, "[3]": {"test_system": "NHL cell lines (Namalwa, Jeko-1, Rec-1, Granta-519, DB, JVM-2)", "assay": "NHL cell proliferation, 3H-thymidine incorporation", "experimental": "(§3) NHL cell proliferation was assessed by 3H-thymidine incorporation assay. Briefly, cells were cultured in 96 well cell culture plates in complete RPMI-1640 medium in the presence and absence of drugs. Following incubation at 37° C. for 3 days, 1 μCi 3H-thymidine was added to each well for the last 5 hours of incubation. The 3H incorporation of each well was then measured.\n(§4) To better understand how the effectiveness of immunomodulatory compound administration varies among different cancer cell types, the immunomodulatory compound 1-oxo-2-(2,6-dioxopiperidin-3-yl)-4-aminoisoindoline was tested in vitro for its anti-proliferative effect in several NHL cell lines after 1-3 days of treatment. The method utilized ^3H-thymidine incorporation, microbead array technology and real time PCR. The six tested cell lines were Namalwa, Jeko-1, Rec-1, Granta-519, DB, and JVM-2."}, "[4]": {"test_system": "DB cell line", "assay": "NHL cell proliferation, 3H-thymidine incorporation, DB cells", "details": "DB (t(14;18)) cells", "experimental": "as §3, §4"}, "[5]": {"test_system": "NHL cells", "assay": "Real-time RT-PCR gene expression in NHL cell lines", "experimental": "as §1, §2\nThe effect of the administration of 1-oxo-2-(2,6-dioxopiperidin-3-yl)-4-aminoisoindoline in various NHL cells was measured after 24 hours of incubation, using real-time RT-PCR (FIG. 9)."}, "[6]": {"test_system": "Namalwa cells", "assay": "Luminex assay for VEGF production, Namalwa", "details": "3 days", "experimental": "(§5) Cells were treated with the drug for 3 days in 96 well plates. Cell culture supernatants were then collected for measurement of VEGF using Luminex/xMAP® technology.\n(§6) 1-oxo-2-(2,6-dioxopiperidin-3-yl)-4-aminoisoindoline inhibited the production of the pro-angiogenic growth factor VEGF from anti-proliferation sensitive NHL cells, such as Namalwa, Jeko-1 and Rec-1 cells."}, "[7]": {"test_system": "Jeko-1 cells", "assay": "Luminex assay for VEGF production, Jeko-1", "details": "3 days", "experimental": "as §5, §6"}, "[8]": {"test_system": "Rec-1 cells", "assay": "Luminex assay for VEGF production, Rec-1", "details": "3 days", "experimental": "as §5, §6"}, "[9]": {"test_system": "Granta-519 cells", "assay": "Luminex assay for VEGF production, Granta-519", "details": "3 days", "experimental": "as §5, §6"}, "[10]": {"test_system": "DB cells", "assay": "Luminex assay for VEGF production, DB", "details": "3 days", "experimental": "as §5, §6"}, "[11]": {"test_system": "sensitive NHL cells", "assay": "Luminex assay for VEGF production, sensitive NHL cells", "experimental": "as §5, §6"}, "[12]": {"test_system": "Rec-1 cells", "assay": "Rec-1 cell growth in the presence of rhVEGF or anti-VEGF antibody", "details": "Rec-1 cells (FIG. 8)", "experimental": "as §3"}, "[13]": {"test_system": "Namalwa cells", "assay": "Real-time RT-PCR gene expression in Namalwa cells", "experimental": "as §1, §2\nThe effect of the administration of 1-oxo-2-(2,6-dioxopiperidin-3-yl)-4-aminoisoindoline in Namalwa cells after 48 hours of drug treatment was measured.\nThe effect of administration of 1-oxo-2-(2,6-dioxopiperidin-3-yl)-4-aminoisoindoline at various time points from 0 to 48 hours in the fold change in expression of several genes was measured in Namalwa cells (FIG. 11)."}, "[14]": {"test_system": "Namalwa cells", "assay": "Proliferation of Namalwa cells after SPARC siRNA knockdown", "details": "SPARC siRNA 200 nM, drug for 2 days", "experimental": "as §3\nCells were transfected with SPARC or cyclophilin siGENME SMARTpool (Dharmacon, Lafayette, Colo.) at final concentration of 200 nM using DharmaFECT 2 transfection reagents following the manufacturer's protocol. After 24 hours of transfection, cells were then treated with the drug for 2 days.\nSPARC siRNA was transfected to Namalwa cells to determine the effect of a SPARC knockdown on the antiproliferative effect of 1-oxo-2-(2,6-dioxopiperidin-3-yl)-4-aminoisoindoline in Namalwa cells. The anti-proliferative effect of 1-oxo-2-(2,6-dioxopiperidin-3-yl)-4-aminoisoindoline is weaker after SPARC knockdown compared to mock transfected control cells."}, "[15]": {"details": "Namalwa cells, 10 μM, 2-48 hours"}}}
{"smiles": "Nc1cccc2c1CN(C1CCC(=O)NC1=O)C2=O", "note": "(centres unmarked) [1-oxo-2-(2,6-dioxopiperidin-3-yl)-4-aminoisoindoline]", "values": [{"measurement": "VEGF mRNA level", "setting": "[1]", "value": "decrease"}, {"measurement": "p21 mRNA level", "setting": "[1]", "value": "increase"}, {"measurement": "enhancement of activin A mRNA level", "setting": "[2]; 1 μM", "value": "up to 2.6 fold"}, {"measurement": "SPARC mRNA level", "setting": "[2]; 10 μM", "value": "enhanced"}, {"measurement": "anti-proliferative activity against NHL cells", "setting": "[3]; 1-3 days of treatment", "value": "demonstrated anti-proliferative activity"}, {"measurement": "order of sensitivity of NHL cell lines to the compound", "setting": "[3]; 3 day incubation", "value": "Namalwa>Rec-1>Jeko-1>Granta-519>JVM-2>DB"}, {"measurement": "cell proliferation of DB cell line", "setting": "[4]", "value": "increased rate of cell proliferation"}, {"measurement": "VEGF mRNA expression", "setting": "[5]; NHL cells", "value": "does not inhibit"}, {"measurement": "p21 in sensitive and resistant (DB) cells", "setting": "[5]; both sensitive and resistant (DB) cells", "value": "elevated p21 was observed"}, {"measurement": "elevation of SPARC mRNA in resistant cells", "setting": "[5]; resistant cells", "value": "not seen"}, {"measurement": "SPARC expression", "setting": "[5]; sensitive NHL cells, 24 hours", "value": "increased"}, {"measurement": "p21cip/kip expression", "setting": "[5]; sensitive NHL cells, 24 hours", "value": "increased"}, {"measurement": "SPARC mRNA expression", "setting": "[5]; several NHL cell lines", "value": "increased expression of SPARC mRNA"}, {"measurement": "p21cip/kip expression", "setting": "[5]; several cell lines", "value": "increased"}, {"measurement": "production of VEGF", "setting": "[6]", "value": "inhibited"}, {"measurement": "production of VEGF", "setting": "[7]", "value": "inhibited"}, {"measurement": "production of VEGF", "setting": "[8]", "value": "inhibited"}, {"measurement": "production of VEGF", "setting": "[9]", "value": "fails to inhibit"}, {"measurement": "production of VEGF", "setting": "[10]", "value": "fails to inhibit"}, {"measurement": "concentrations for the effect on VEGF compared with anti-proliferative effects", "setting": "[11]", "value": "well below levels required for anti-proliferative effects"}, {"measurement": "production of the proangiogenic growth factor VEGF", "setting": "[11]; FIG. 7", "value": "inhibits"}, {"measurement": "anti-proliferative activity on addition of exogenous recombinant human VEGF (in excess) or neutralizing VEGF antibody", "setting": "[12]", "value": "does not affect"}, {"measurement": "change in expression of BlyS", "setting": "[13]; [15]", "value": "did not exhibit a significant change"}, {"measurement": "change in expression of VEGF", "setting": "[13]; [15]", "value": "did not exhibit a significant change"}, {"measurement": "change in expression of cyclin D1", "setting": "[13]; [15]", "value": "did not exhibit a significant change"}, {"measurement": "change in expression of p53/p73", "setting": "[13]; [15]", "value": "did not exhibit a significant change"}, {"measurement": "anti-proliferative effect after SPARC knockdown compared to mock transfected control cells", "setting": "[14]", "value": "weaker"}]}
{"smiles": "C[C@@H]1C[C@H]2[C@@H]3CCC4=CC(=O)C=C[C@]4(C)[C@@]3(F)[C@@H](O)C[C@]2(C)[C@@]1(O)C(=O)CO", "note": "[dexamethasone]", "values": [{"measurement": "SPARC expression", "setting": "[13]; dexamethasone alone, NHL cells such as Namalwa", "value": "no effect"}]}
{"smiles": "Nc1cccc2c1C(=O)N(C1CCC(=O)NC1=O)C2=O", "note": "(centres unmarked) [1,3-dioxo-2-(2,6-dioxopiperidin-3-yl)-4-aminoisoindoline]", "values": [{"measurement": "VEGF mRNA level", "setting": "[1]", "value": "decrease"}, {"measurement": "p21 mRNA level", "setting": "[1]", "value": "increase"}, {"measurement": "enhancement of mRNA levels of p21, activin A and SPARC", "setting": "[2]; 10 μM", "value": "about 3 fold"}, {"measurement": "SPARC mRNA level", "setting": "[2]; 1-10 μM", "value": "up-regulate"}, {"measurement": "activin A mRNA level", "setting": "[2]; 1-10 μM", "value": "up-regulate"}, {"measurement": "p21 mRNA level", "setting": "[2]; 1-10 μM", "value": "up-regulate"}, {"measurement": "effect on p21", "setting": "[2]", "value": "clear enhancing effect"}]}
